Legend:
[1] = system: immobilized soluble extracellular domain of eck; assay: Stability of eck binding activity of formulated EBP (BIAcore); type: physicochemical, human; settings: diluted into PBS to 100 μg/ml, 2 hours at 3° C., no detergent
Protocol: FIG. 7. Binding of CHO-derived EBP in various detergent formulations to immobilized eck receptor as measured by BIAcore. Purified EBP was diluted to 100 μg/ml in PBS in the presence or absence of detergent and incubated for 2 hrs. at 3° C. Protein samples were diluted to the concentrations indicated in the figure and tested for eck receptor binding.
Measuring the ability of EBP to bind to the immobilized soluble extracellular domain of eck using BIAcore, it was determined that dilute solutions of purified EBP rapidly lost the ability to bind to the eck receptor unless formulated with a protective agent such as a detergent. Recombinant CHO EBP diluted into PBS to 100 μg/ml and incubated for 2 hours at […] lost approximately 50% of its eck binding activity. […] (see FIG. 7).

[2] = system: granulation tissue in subcutaneously implanted wound chambers; assay: Rat wound chamber assay (granulation tissue formation); type: in vivo; settings: for DNA / HYDROXY-PROLINE / TOTAL GYLCOSAMINO-GLYCANS / TOTAL PROTEIN / WET WEIGHT: harvest day 12, mean ± SEM; for increase in hydroxyproline: not statistically significant
Protocol: Male Sprague-Dawley specific pathogen free rats (300-350 g; Charles River Breeding Laboratories, Inc.) were used for this study. Rats were anesthetized with sodium pentobarbital (50 mg/kg body weight) by intraperitoneal injection. Using aseptic surgical technique, a 3 cm midline incision was made on the dorsal surface of the rat. A single pocket was formed under the panniculus carnosis by blunt dissection on one side of the animal. A 3 cm long×1 cm diameter sterile stainless steel wire mesh cylinder was then inserted subcutaneously. The wound chambers used were similar to those described by Schilling et. al. (Surgery 46, 702-710 (1959)) and utilized by Hunt et. al. (Am. J. Surg. 114, 302-307 (1967)) as wound healing models. The incision was closed with wound clips. The rats survived the operation well with no evidence of postoperative discomfort. Beginning 3 days after wound chamber implantation, the rats were randomly divided into 5 groups. At this time daily injections of 1) 10 μg CHO-derived EBP, 2) 1 μg CHO-derived EBP, 3) 8 μg E. coli derived EBP, 4) 5 μg recombinant platelet derived growth factor (PDGF), or 5) 0.1 ml sterile PBS and 1 mM CHAPS were begun and continued for a total of 9 days. The injections were made directly into the wound chamber through a silicone septum at the outer edge of the chamber. Twelve days after chamber implantation, the rats were sacrificed by CO2 asphyxiation. Immediately after sacrifice, the chambers were removed surgically and carefully opened. The enclosed granulation tissue was then weighed, and stored at -70° C. for future processing.
Granulation tissue samples were thawed and homogenized with a Polytron homogenizer in 2 ml of ice-cold distilled water for approximately 1 minute. Next, 2 ml of ice-cold 10% trichloroacetic acid was added to the homogenate and incubated at 4° C. for 1 hour. The TCA-precipitated samples were centrifuged (500 g, 10 minutes) at 4° C., washed once with 2 ml of ice-cold 5% TCA, and finally washed with 2 ml of ice-cold 95% ethanol containing 50 mM sodium acetate. Samples were defatted twice with 2 ml of ethanol:ether (3:1, v/v) at 20° C. After each defatting procedure, samples were centrifuged (500×g, 10 minutes) and the supernate discarded. The pellet was then dissolved in 1N sodium hydroxide and brought up to a volume of 10 ml.
Total protein was determined by taking an aliquot of the solubilized granulation tissue and assaying the sample according to the method of Bradford (Anal. Biochem. 72, 248-251 (1976)) Bovine serum albumin (Sigma Chemical Co., St. Louis, Mo.) was used for a protein standard curve.
Total DNA content was determined as deoxy-ribose by the colorimetric method of Burton (Biochem. J. 62, 315 (1956)). Briefly, a 1 ml aliquot of the solubilized sample (in 1N NaOH) was neutralized with the addition of 0.5 ml of 2N HCl. A 1 ml aliquot of the neutralized solution was extracted in 10% perchloric acid at 90° C. for 15 minutes. A 1 ml portion of the final extract was added to 2 ml activated diphenylamine (Sigma Chemical, St. Louis, Mo.) reagent and absorbance at 600 nm was measured after overnight incubation at room temperature. Hydrolyzed calf thymus DNA (Sigma) was used to construct the standard curve. The DNA content was measured as a rough index of the number of cells in the wound chamber, with the realization that cell type and cell cycle status also influence DNA content.
Total glycosaminoglycans (GAGs) were determined using chondroitin sulfate as a standard. A spectrophotometric assay for GAGs was run utilizing a change in absorption spectrum of the dye 1,9- dimethyl methylene blue (Farndale et al. Conn. Tiss. Res. 9, 247-248 (1982)).
Total collagen content was determined as hydroxyproline (an index of collagen content) after hydrolysis of the solubilized granulation tissue in 6N HCl at 110° C. for 24 hours. […]

[3] = 1 μg per chamber per day x 9 days
[4] = 1 μg per chamber per day x 9 days, listed as CHO-derived rEBP
[5] = 10 μg per chamber per day x 9 days
[6] = 10 μg per chamber per day x 9 days, listed as CHO-derived rEBP

CHO-EBP: recombinant EBP purified from supernatants of CHO cells transfected with the EBP gene; mainly EBP^1-150 and EBP^1-159
loss of eck binding activity [1]: approximately 50%
DNA [2, 3]: 232 ± 41 µg
HYDROXY-PROLINE [2, 3]: 318.7 ± 31.7 µg
TOTAL GYLCOSAMINO-GLYCANS [2, 3]: 589.2 ± 68.4 µg
TOTAL PROTEIN [2, 3]: 3.88 ± 0.44 mg
WET WEIGHT [2, 3]: 238.0 ± 24.1 mg
DNA [2, 4]: no significant differences
HYDROXY-PROLINE [2, 4]: no significant differences
TOTAL GYLCOSAMINO-GLYCANS [2, 4]: significant increase
TOTAL PROTEIN [2, 4]: no significant differences
WET WEIGHT [2, 4]: significant increase
increase in hydroxyproline ([2]; 1 μg/chamber/day): 21%
DNA [2, 5]: 650 ± 163 µg
HYDROXY-PROLINE [2, 5]: 354.5 ± 63.7 µg
TOTAL GYLCOSAMINO-GLYCANS [2, 5]: 627.9 ± 92.4 µg
TOTAL PROTEIN [2, 5]: 7.15 ± 1.23 mg
WET WEIGHT [2, 5]: 398.2 ± 70.9 mg
DNA [2, 6]: significantly increased
TOTAL GYLCOSAMINO-GLYCANS [2, 6]: significantly increased
TOTAL PROTEIN [2, 6]: significantly increased
WET WEIGHT [2, 6]: significantly increased
increase in hydroxyproline ([2]; 10 μg/chamber/day): 35%

Reference: patent US5716934A, “Eck receptor ligands” (Amgen Inc., priority 1995, dated 1998)
